According to patent US20250099431A1, “GLP-1R MODULATING COMPOUNDS” (priority 2020, published 2025):

How the values were obtained:
GLP-1R = GLP-1R (Homo sapiens (Human), UniProt P43220); assay: GLP-1R activation: cAMP increase in CHO cells stably expressing GLP-1R; format: cell-based; settings: cAMP increase, 10 point dose response, 30 minutes incubation at 37° C., read-out: EC50
Outline: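 CHO cells stably expressing GLP-1R were incubated 1 h at 37 °C in medium with 1% BSA, then exposed to compound in a 10-point dose response for 30 min at 37 °C. cAMP rise was detected by HTRF (Gs Dynamic kit). EC50 came from a sigmoidal fit of response against log agonist concentration.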

[1] = Microsomal stability (liver microsomal assay, mixed cofactors); predicted hepatic clearance; format: in vitro ADME; settings: liver microsomes 1.0 mg protein/mL (+UDPGA +NADPH), 1 μM analyte, 37° C.; scaled with human liver weight and hepatic blood flow 1.3 L/hr/kg
Outline: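 Compound at 1 μM with human or rat pooled liver microsomes, alamethicin-treated, pH 7.4 phosphate, NADPH-regenerating plus UDPGA cofactors, 37° C, sampled 0–70 min. Parent/internal standard ratio by RapidFire QToF MS; half-life from initial log-linear decay, scaled to intrinsic and predicted hepatic clearance and hepatic extraction.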

Sequence of GLP-1R (P43220 24-463): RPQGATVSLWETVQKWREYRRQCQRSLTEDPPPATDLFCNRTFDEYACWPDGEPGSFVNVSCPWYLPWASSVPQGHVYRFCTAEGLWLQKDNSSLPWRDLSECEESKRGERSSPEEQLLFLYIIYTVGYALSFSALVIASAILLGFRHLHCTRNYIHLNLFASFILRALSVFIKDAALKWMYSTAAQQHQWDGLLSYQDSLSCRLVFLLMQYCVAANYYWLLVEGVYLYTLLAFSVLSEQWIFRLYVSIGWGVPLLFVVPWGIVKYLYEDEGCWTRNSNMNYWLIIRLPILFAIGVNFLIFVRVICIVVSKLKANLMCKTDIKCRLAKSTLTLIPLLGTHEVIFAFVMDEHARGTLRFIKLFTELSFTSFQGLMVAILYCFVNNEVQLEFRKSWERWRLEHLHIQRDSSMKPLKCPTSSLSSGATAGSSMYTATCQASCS

## COCCn1c(Cc2ccc(-c3cccc4c3OC(c3ccc(C#N)cc3F)O4)cc2F)nc2ccc(C(=O)O)cc21 (stereo not shown) [Example 4, 2-(4-(2-(4-cyano-2-fluorophenyl)benzo[d][1, 3]dioxol-4-yl)-2-fluorobenzyl)-1-(2-methoxyethyl)-1H-benzo[d]imidazole-6-carboxylic acid]
GLP-1R
  EC50: 103 nM
[1]
  Predicted Hepatic Clearance (Pred. Cl.): 0.25 L/h/kg

## COCCn1c(Cc2c(F)cc(-c3cccc4c3OC(C)(c3ccc(C#N)s3)O4)cc2F)nc2ccc(C(=O)O)cc21 (stereo not shown) [Example 11, 2-(4-(2-(5-cyanothiophen-2-yl)-2-methylbenzo[d][1, 3]dioxol-4-yl)-2,6-difluorobenzyl)-1-(2-methoxyethyl)-1H-benzo[d]imidazole-6-carboxylic acid]
GLP-1R
  EC50: 34 nM
[1]
  Predicted Hepatic Clearance (Pred. Cl.): 0.43 L/h/kg

## CC1(c2ccc(Cl)cn2)Oc2cccc(-c3cnc(Cc4nc5ccc(C(=O)O)cc5n4C[C@@H]4CCO4)c(F)c3)c2O1 (stereo partly drawn) [Example 14, 2-((5-(2-(5-chloropyridin-2-yl)-2-methylbenzo[d][1, 3]dioxol-4-yl)-3-fluoropyridin-2-yl)methyl)-1-(((S)-oxetan-2-yl)methyl)-1H-benzo[d]imidazole-6-carboxylic acid]
GLP-1R
  EC50: 4.5 nM
[1]
  Predicted Hepatic Clearance (Pred. Cl.): 0.15 L/h/kg

## CC1(c2ccc(Cl)cc2F)Oc2cccc(-c3cc(F)c(Cc4nc5ccc(C(=O)O)cc5n4C[C@@H]4CCO4)cc3F)c2O1 (single isomer, unassigned) [Example 44]
GLP-1R
  EC50: 0.033 nM
[1]
  Predicted Hepatic Clearance (Pred. Cl.): 0.29 L/h/kg

## COCCn1c(Cc2ccc(-c3cccc4c3OC(c3ccccc3)O4)cc2F)nc2ccc(C(=O)O)cc21 (stereo not shown) [Example 32, 2-(2-fluoro-4-(2-phenylbenzo[d][1, 3]dioxol-4-yl)benzyl)-1-(2-methoxyethyl)-1H-benzo[d]imidazole-6-carboxylic acid]
GLP-1R
  EC50: 1920 nM
[1]
  Predicted Hepatic Clearance (Pred. Cl.): 0.38 L/h/kg

## COCCn1c(Cc2ccc(-c3cccc4c3OC(c3ccccc3)O4)cc2F)nc2ccc(C(=O)O)cc21 (single isomer, unassigned) [Example 36, 2-(2-fluoro-4-(2-phenylbenzo[d][1, 3]dioxol-4-yl)benzyl)-1-(2-methoxyethyl)-1H-benzo[d]imidazole-6-carboxylic acid]
GLP-1R
  EC50: 242 nM
[1]
  Predicted Hepatic Clearance (Pred. Cl.): 0.52 L/h/kg

## COCCn1c(Cc2ccc(-c3cccc4c3OC(C)(c3ccc(Cl)cc3F)O4)[nH]c2=O)nc2ccc(C(=O)O)cc21 (stereo not shown) [Example 86, 2-((6-(2-(4-chloro-2-fluorophenyl)-2-methylbenzo[d][1, 3]dioxol-4-yl)-2-oxo-1,2-dihydropyridin-3-yl)methyl)-1-(2-methoxyethyl)-1H-benzo[d]imidazole-6-carboxylic acid]
GLP-1R
  EC50: 13 nM
[1]
  Predicted Hepatic Clearance (Pred. Cl.): 0.12 L/h/kg

## CCC1(c2ccc(Cl)cc2F)Oc2cccc(-c3cc(F)c(Cc4nc5ccc(C(=O)O)cc5n4CCOC)c(F)c3)c2O1 (stereo not shown) [Example 53, 2-(4-(2-(4-chloro-2-fluorophenyl)-2-ethylbenzo[d][1,3]dioxol-4-yl)-2,6-difluorobenzyl)-1-(2-methoxyethyl)-1H-benzo[d]imidazole-6-carboxylic acid]
GLP-1R
  EC50: 1290 nM
[1]
  Predicted Hepatic Clearance (Pred. Cl.): 0.8 L/h/kg

## COCCn1c(Cc2c(F)cc(-c3cccc4c3OC(C)(c3ccc(C#N)cc3F)O4)c(F)c2F)nc2ccc(C(=O)O)cc21 (stereo not shown) [Example 88, 2-(4-(2-(4-cyano-2-fluorophenyl)-2-methylbenzo[d][1, 3]dioxol-4-yl)-2,3,6-trifluorobenzyl)-1-(2-methoxyethyl)-1H-benzo[d]imidazole-6-carboxylic acid]
GLP-1R
  EC50: 12 nM
[1]
  Predicted Hepatic Clearance (Pred. Cl.): 0.48 L/h/kg

## COCCn1c(Cc2c(F)cc(-c3cccc4c3OC(C)(c3ccc(C#N)cc3F)O4)cc2F)nc2ccc(C(=O)O)cc21 (single isomer, unassigned) [Example 99, 2-(4-(2-(4-cyano-2-fluorophenyl)-2-methylbenzo[d][1, 3]dioxol-4-yl)-2,6-difluorobenzyl)-1-(2-methoxyethyl)-1H-benzo[d]imidazole-6-carboxylic acid]
GLP-1R
  EC50: 2.4 nM
[1]
  Predicted Hepatic Clearance (Pred. Cl.): 0.68 L/h/kg

## O=C(O)c1ccc2nc(Cc3c(F)cc(-c4cccc5c4C(=O)N(c4ccc(Cl)cc4F)C5)cc3F)n(C[C@@H]3CCO3)c2c1 [Example 72, (S)-2-(4-(2-(4-chloro-2-fluorophenyl)-3-oxoisoindolin-4-yl)-2,6-difluorobenzyl)-1-(oxetan-2-ylmethyl)-1H-benzo[d]imidazole-6-carboxylic acid]
GLP-1R
  EC50: 10000 nM
[1]
  Predicted Hepatic Clearance (Pred. Cl.): 0.22 L/h/kg

## CC1(c2ccc(C(F)(F)F)cc2)Oc2cccc(-c3cc(F)c(Cc4nc5ccc(C(=O)O)cc5n4C[C@@H]4CCO4)cc3F)c2O1 (stereo partly drawn) [Example 63, 2-(2,5-difluoro-4-(2-methyl-2-(4-(trifluoromethyl)phenyl)benzo[d][1, 3]dioxol-4-yl)benzyl)-1-(((S)-oxetan-2-yl)methyl)-1H-benzo[d]imidazole-6-carboxylic acid]
GLP-1R
  EC50: 0.62 nM
[1]
  Predicted Hepatic Clearance (Pred. Cl.): 0.21 L/h/kg

## COCCn1c(Cc2ccc(-c3cccc4c3OC(c3ccccc3)C4)cc2F)nc2ccc(C(=O)O)cc21 (stereo not shown) [Example 7, 2-(2-fluoro-4-(2-phenyl-2,3-dihydrobenzofuran-7-yl)benzyl)-1-(2-methoxyethyl)-1H-benzo[d]imidazole-6-carboxylic acid]
GLP-1R
  EC50: 530 nM
[1]
  Predicted Hepatic Clearance (Pred. Cl.): 0.45 L/h/kg

## CC1(c2ccc(Cl)cn2)Oc2ccc(F)c(-c3ccc(Cc4nc5ccc(C(=O)O)cc5n4C[C@@H]4CCO4)c(F)c3)c2O1 (stereo partly drawn) [Example 76, 2-(4-(2-(5-chloropyridin-2-yl)-5-fluoro-2-methylbenzo[d][1, 3]dioxol-4-yl)-2-fluorobenzyl)-1-(((S)-oxetan-2-yl)methyl)-1H-benzo[d]imidazole-6-carboxylic acid]
GLP-1R
  EC50: 4.3 nM
[1]
  Predicted Hepatic Clearance (Pred. Cl.): 0.48 L/h/kg

## CC1(c2ccc(Cl)cc2F)Oc2cccc(-c3cc(F)c(Cc4nc5ccc(C(=O)O)nc5n4CC4(CC#N)CC4)cc3F)c2O1 (stereo not shown) [Example 75, 2-(4-(2-(4-chloro-2-fluorophenyl)-2-methylbenzo[d][1, 3]dioxol-4-yl)-2,5-difluorobenzyl)-3-((1-(cyanomethyl)cyclopropyl)methyl)-3H-imidazo[4,5-b]pyridine-5-carboxylic acid]
GLP-1R
  EC50: 0.7 nM
[1]
  Predicted Hepatic Clearance (Pred. Cl.): 0.29 L/h/kg

## COCCn1c(Cc2ccc(-c3cccc4c3OC(c3ccc(Cl)cn3)C4)cc2F)nc2ccc(C(=O)O)cc21 (stereo not shown) [Example 78, 2-(4-(2-(5-chloropyridin-2-yl)-2,3-dihydrobenzofuran-7-yl)-2-fluorobenzyl)-1-(2-methoxyethyl)-1H-benzo[d]imidazole-6-carboxylic acid]
GLP-1R
  EC50: 1780 nM
[1]
  Predicted Hepatic Clearance (Pred. Cl.): 0.43 L/h/kg

## COCCn1c(Cc2c(F)cc(-c3cccc4c3OC(c3ccc(C#N)cc3F)O4)cc2F)nc2ccc(C(=O)O)cc21 (single isomer, unassigned) [Example 38, 2-(4-(2-(4-cyano-2-fluorophenyl)benzo [d][1,3]dioxol-4-yl)-2,6-difluorobenzyl)-1-(2-methoxyethyl)-1H-benzo[d]imidazole-6-carboxylic acid]
GLP-1R
  EC50: 37 nM
[1]
  Predicted Hepatic Clearance (Pred. Cl.): 0.24 L/h/kg

## CC1(c2ccc(Cl)cn2)Oc2cccc(-c3cc(F)c(Cc4nc5ccc(C(=O)O)cc5n4C[C@@H]4CCO4)c(F)c3)c2O1 (single isomer, unassigned) [Example 50]
GLP-1R
  EC50: 16 nM
[1]
  Predicted Hepatic Clearance (Pred. Cl.): 0.19 L/h/kg

## COCCn1c(Cc2c(F)cc(-c3cccc4c3OC3(CCCOc5cc(Cl)ccc53)O4)cc2F)nc2ccc(C(=O)O)cc21 (stereo not shown) [Example 55, 2-(4-(8-chloro-3,4-dihydro-2H-spiro[benzo[b]oxepine-5,2′-benzo[d][1,3]dioxol]-4′-yl)-2,6-difluorobenzyl)-1-(2-methoxyethyl)-1H-benzo[d]imidazole-6-carboxylic acid]
GLP-1R
  EC50: 1270 nM
[1]
  Predicted Hepatic Clearance (Pred. Cl.): 0.5 L/h/kg

## COCCn1c(Cc2cc(F)c(-c3c(F)ccc4c3OC(C)(c3ccc(Cl)cn3)O4)cc2F)nc2ccc(C(=O)O)cc21 (stereo not shown) [Example 101, 2-(4-(2-(5-chloropyridin-2-yl)-5-fluoro-2-methylbenzo[d][1, 3]dioxol-4-yl)-2,5-difluorobenzyl)-1-(2-methoxyethyl)-1H-benzo[d]imidazole-6-carboxylic acid]
GLP-1R
  EC50: 160 nM
[1]
  Predicted Hepatic Clearance (Pred. Cl.): 0.71 L/h/kg

## COCCn1c(Cc2c(F)cc(-c3cccc4c3OC3(CCCc5cc(Cl)ccc53)O4)cc2F)nc2ccc(C(=O)O)cc21 (stereo not shown) [Example 56, 2-(4-(6′-chloro-3′,4′-dihydro-2′H-spiro[benzo[d][1,3]dioxole-2,1′-naphthalen]-4-yl)-2,6-difluorobenzyl)-1-(2-methoxyethyl)-1H-benzo[d]imidazole-6-carboxylic acid]
GLP-1R
  EC50: 3750 nM
[1]
  Predicted Hepatic Clearance (Pred. Cl.): 0.35 L/h/kg

## CC1(c2ccc(C#N)cc2F)Oc2cccc(-c3cc(F)c(Cc4nc5ccc(C(=O)O)cc5n4C[C@@H]4CCO4)c(F)c3F)c2O1 (single isomer, unassigned) [Example 94]
GLP-1R
  EC50: 0.32 nM
[1]
  Predicted Hepatic Clearance (Pred. Cl.): 0.42 L/h/kg

## CC1(c2ccc(Cl)cn2)Oc2cccc(-c3cc(F)c(Cc4nc5ccc(C(=O)O)cc5n4CC4(CF)CC4)c(F)c3)c2O1 (stereo not shown) [Example 12, 2-(4-(2-(5-chloropyridin-2-yl)-2-methylbenzo[d][1, 3]dioxol-4-yl)-2,6-difluorobenzyl)-1-((1-(fluoromethyl)cyclo-propyl)methyl)-1H-benzo[d]imidazole-6-carboxylic acid]
GLP-1R
  EC50: 2.4 nM
[1]
  Predicted Hepatic Clearance (Pred. Cl.): 0.24 L/h/kg
